Activity calls are given as the source filed them.
Columns and labels:
[1] = target: T1, Oxysterols receptor LXR-alpha (Homo sapiens) (UniProt Q13133); assay: Agonist activity at LXRalpha in human HepG2 cells assessed as upregulation of CYP7A1 protein expression level at 25 uM incubated for 24 hrs by Western blot analysis; format: cell-based; conditions: filed as agonist
T1 sequence (whole entry): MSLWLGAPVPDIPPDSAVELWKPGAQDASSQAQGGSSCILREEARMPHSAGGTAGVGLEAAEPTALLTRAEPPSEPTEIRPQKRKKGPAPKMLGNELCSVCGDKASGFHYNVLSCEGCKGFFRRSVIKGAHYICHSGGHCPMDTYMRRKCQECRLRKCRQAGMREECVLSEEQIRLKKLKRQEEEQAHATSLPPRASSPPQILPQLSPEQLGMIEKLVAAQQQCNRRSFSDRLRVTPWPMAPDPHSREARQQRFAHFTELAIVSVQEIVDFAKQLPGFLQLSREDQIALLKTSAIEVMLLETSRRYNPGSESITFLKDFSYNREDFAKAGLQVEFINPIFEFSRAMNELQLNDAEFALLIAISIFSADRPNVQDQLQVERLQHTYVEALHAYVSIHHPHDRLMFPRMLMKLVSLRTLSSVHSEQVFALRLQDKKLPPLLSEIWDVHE

HepG2 [2] = assay: Effect on LXRbeta mRNA expression in human HepG2 cells at 25 uM incubated for 24 hrs by RT-qPCR analysis; format: functional, cell-based
[3] = target: T1, Oxysterols receptor LXR-alpha (Homo sapiens); assay: Agonist activity at LXRalpha in human HepG2 cells assessed as upregulation of ABCA1 protein expression level at 25 uM incubated for 24 hrs by Western blot analysis; format: cell-based; conditions: filed as agonist
Mus musculus [4] = assay: Antihypercholesterolemic activity against high cholesterol diet fed LXRalpha knockout C57BL/6J mouse assessed as improvement in hepatocellular degeneration at 300 microg/kg, ip administered every 2 days for 15 days by H&E staining based analysis; format: functional, organism-based; conditions: dose 300.0 µg/kg, time 15.0 day
Mus musculus [5] = assay: Antihypercholesterolemic activity against high cholesterol diet fed LXRalpha knockout C57BL/6J mouse assessed as improvement in hepatocellular degeneration at 300 microg/kg, ip administered every 2 days for 15 days by Oil red staining based analysis; format: functional, organism-based; conditions: dose 300.0 µg/kg, time 15.0 day
Mus musculus [6] = assay: Antihypercholesterolemic activity against high cholesterol diet fed LXRalpha knockout C57BL/6J mouse assessed as reduction in serum high density lipoprotein cholesterol level at 300 microg/kg, ip administered every 2 days for 15 days; format: functional, organism-based; conditions: dose 300.0 µg/kg, time 15.0 day
Mus musculus [7] = assay: Antihypercholesterolemic activity against high cholesterol diet fed C57BL/6J mouse assessed as reduction in hepatocyte lysis necrosis at 300 microg/kg, ip administered every 2 days for 15 days by Oil red staining based analysis; format: functional, organism-based; conditions: dose 300.0 µg/kg, time 15.0 day
Mus musculus [8] = assay: Antihypercholesterolemic activity against high cholesterol diet fed LXRalpha knockout C57BL/6J mouse assessed as upregulation in ABCA1 protein level at 300 microg/kg, ip administered every 2 days for 15 days by Western blot analysis; format: functional, organism-based; conditions: dose 300.0 µg/kg, time 15.0 day
Mus musculus [9] = assay: Antihypercholesterolemic activity against high cholesterol diet fed LXRalpha knockout C57BL/6J mouse assessed as improvement in liver lipid droplet accumulation at 300 microg/kg, ip administered every 2 days for 15 days by Oil red staining based analysis; format: functional, organism-based; conditions: dose 300.0 µg/kg, time 15.0 day
HepG2 [10] = assay: Effect on ABCG1 mRNA expression in human HepG2 cells at 25 uM incubated for 24 hrs by RT-qPCR analysis; format: functional, cell-based
Mus musculus [11] = assay: Antihypercholesterolemic activity against high cholesterol diet fed LXRalpha knockout C57BL/6J mouse assessed as reduction in serum alanine aminotransferase level at 300 microg/kg, ip administered every 2 days for 15 days; format: functional, organism-based; conditions: dose 300.0 µg/kg, time 15.0 day
Mus musculus [12] = assay: Antihypercholesterolemic activity against high cholesterol diet fed C57BL/6J mouse assessed as reduction in SREBP1 protein level at 300 microg/kg, ip administered every 2 days for 15 days by Western blot analysis; format: functional, organism-based; conditions: dose 300.0 µg/kg, time 15.0 day
HepG2 [13] = assay: Improvement of lipid metabolism in palmitic acid and oleic acid induced human HepG2 cell model of hepatic steatosis assessed as reduction in total cellular cholesterol level at 25 uM preincubated with palmitic acid and oleic acid for 48 hrs followed by compound addition and measured after 24 hrs; format: functional, cell-based
HepG2 [14] = assay: Improvement of lipid metabolism in palmitic acid and oleic acid induced human HepG2 cell model of hepatic steatosis assessed as reduction in triglyceride level at 25 uM preincubated with palmitic acid and oleic acid for 48 hrs followed by compound addition and measured after 24 hrs; format: functional, cell-based
Mus musculus [15] = assay: Antihypercholesterolemic activity against high cholesterol diet fed C57BL/6J mouse assessed as reduction of fine vacuoles in the cytoplasm at 300 microg/kg, ip administered every 2 days for 15 days by Oil red staining based analysis; format: functional, organism-based; conditions: dose 300.0 µg/kg, time 15.0 day
Mus musculus [16] = assay: Antihypercholesterolemic activity against high cholesterol diet fed LXRalpha knockout C57BL/6J mouse assessed as reduction in serum low density lipoprotein cholesterol level at 300 microg/kg, ip administered every 2 days for 15 days; format: functional, organism-based; conditions: dose 300.0 µg/kg, time 15.0 day
Mus musculus [17] = assay: Antihypercholesterolemic activity against high cholesterol diet fed LXRalpha knockout C57BL/6J mouse assessed as improvement in hepatic steatosis at 300 microg/kg, ip administered every 2 days for 15 days by H&E staining based analysis; format: functional, organism-based; conditions: dose 300.0 µg/kg, time 15.0 day
Mus musculus [18] = assay: Antihypercholesterolemic activity against high cholesterol diet induced C57BL/6J mouse assessed as reduction in serum alanine aminotransferase level at 300 microg/kg, ip administered every 2 days for 15 days; format: functional, organism-based; conditions: dose 300.0 µg/kg, time 15.0 day
Mus musculus [19] = assay: Antihypercholesterolemic activity against high cholesterol diet fed C57BL/6J mouse assessed as reduction in degree of hepatic steatosis at 300 microg/kg, ip administered every 2 days for 15 days by H&E staining based analysis; format: functional, organism-based; conditions: dose 300.0 µg/kg, time 15.0 day
Mus musculus [20] = assay: Antihypercholesterolemic activity against high cholesterol diet fed C57BL/6J mouse assessed as improvement in hepatocyte liposis at 300 microg/kg, ip administered every 2 days for 15 days by H&E staining based analysis; format: functional, organism-based; conditions: dose 300.0 µg/kg, time 15.0 day
Mus musculus [21] = assay: Antihypercholesterolemic activity against high cholesterol diet induced C57BL/6J mouse assessed as reduction in plasma low-density lipoprotein cholesterol level at 300 microg/kg, ip administered every 2 days for 15 days; format: functional, organism-based; conditions: dose 300.0 µg/kg, time 15.0 day

Measured: Activity

COc1ccc2c3c([nH]c2c1)[C@H](C=C(C)C)N1C(=O)[C@@H]2CCCN2C(=O)[C@]1(O)[C@H]3O
active: [1] | [3] | Mus musculus [4] | Mus musculus [5] | Mus musculus [7] | Mus musculus [9] | Mus musculus [12] | HepG2 [13] | HepG2 [14] | Mus musculus [15] | Mus musculus [17] | Mus musculus [18] | Mus musculus [19] | Mus musculus [20] | Mus musculus [21]
inactive: HepG2 [2] | Mus musculus [6] | Mus musculus [8] | HepG2 [10] | Mus musculus [11] | Mus musculus [16]
